Results as given in paper PMC2882596 (Journal of the American Chemical Society, 2010).

Columns and labels:
Bacillus subtilus 168 = assay: MIC, serial dilution liquid culture, overnight in 96-well plates; type: cell-based, Bacillus subtilis; conditions: wild type scaffold variants, equivalent potency
Staph aureus strains = assay: Antibiotic potency of wild type thiocillin variants; type: cell-based, Staphylococcus aureus; conditions: wild type scaffold variants, equivalent potency

| Substance | antibiotic potency against B subtilis (Bacillus subtilus 168) | antibiotic potency against Staph aureus strains (Staph aureus strains) |
| --- | --- | --- |
| Micrococcin P1 | submicromolar | submicromolar |
| Micrococcin P2 | submicromolar | submicromolar |
| Thiocillin I | submicromolar | submicromolar |
| YM-266183 | submicromolar | submicromolar |
